Data on 25 compounds can be found in patent US10913736B2 (UNIVERSITY OF WASHINGTON, priority 2014, dated 2021).

Values joined by “and” are separate entries in the source; they are usually repeats but may differ in a detail not shown here. Equal entries are not always repeated. Where two headings read alike, the source gives them in different places. Where only a bound is given, the exact number is not on record here.

The target in one assay is MetRS (T. brucei) (Trypanosoma brucei brucei, UniProt Q38C91). Nature of the assay: MetRS (T. brucei) ATP depletion assay using Kinase-Glo. The class given is biochemical.
Chain of MetRS (T. brucei) (Q38C91 entry or part of it): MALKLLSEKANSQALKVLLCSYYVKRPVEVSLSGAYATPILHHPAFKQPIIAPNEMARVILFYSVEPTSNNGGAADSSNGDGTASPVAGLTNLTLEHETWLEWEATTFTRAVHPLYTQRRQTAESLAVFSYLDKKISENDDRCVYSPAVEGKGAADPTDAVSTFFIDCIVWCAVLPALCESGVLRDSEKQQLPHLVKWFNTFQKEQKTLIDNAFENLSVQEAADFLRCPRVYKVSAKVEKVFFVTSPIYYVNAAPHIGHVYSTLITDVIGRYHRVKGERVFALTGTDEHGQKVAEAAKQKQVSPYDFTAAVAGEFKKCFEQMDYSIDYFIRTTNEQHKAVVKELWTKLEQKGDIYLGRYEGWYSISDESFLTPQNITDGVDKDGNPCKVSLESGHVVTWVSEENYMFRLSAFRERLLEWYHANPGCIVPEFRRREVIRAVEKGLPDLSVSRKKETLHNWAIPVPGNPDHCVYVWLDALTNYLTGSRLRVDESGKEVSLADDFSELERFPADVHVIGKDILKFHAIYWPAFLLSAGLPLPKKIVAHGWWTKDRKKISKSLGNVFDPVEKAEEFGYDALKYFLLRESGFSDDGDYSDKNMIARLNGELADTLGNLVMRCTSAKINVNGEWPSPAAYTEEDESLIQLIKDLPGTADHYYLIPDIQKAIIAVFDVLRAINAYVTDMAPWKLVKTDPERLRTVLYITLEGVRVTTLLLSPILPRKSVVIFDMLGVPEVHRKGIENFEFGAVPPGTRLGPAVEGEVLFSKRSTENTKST
For the next assay, the system named is T. brucei. Nature of the assay: Growth inhibition assay of T. brucei cell cultures (Alamar Blue, 48 h). In kind it is cell-based. (In general: Resazurin is reduced to fluorescent resorufin, in cell work by metabolically active cells.)
Where [1] appears, read: Trypanosoma brucei; read-out: B) T. brucei EC50.

In the case of `Clc1cc(Cl)cc(CNCCc2nc3ccc(Cl)nc3[nH]2)c1` [Compound 1780, [2-(5-chloro-3H-imidazo[4,5-b]pyridin-2-yl)-ethyl]-(3,5-dichloro-benzyl)-amine], the IC50 (commonly the concentration needed to halve the response being measured) against MetRS (T. brucei) is 67 nM and 36 nM. Further, the EC50 (as a rule, the concentration at which the effect is half-maximal) with T. brucei (setting [1]) came out at 1160 nM; with T. brucei (read-out: B) T. brucei EC50), 1060 nM.

`Clc1cc(Cl)cc(CNC2CCCCN(c3nc4nc(Cl)ccc4[nH]3)C2)c1` (stereo not shown) [Compound 1903, 1-(5-chloro-1H-imidazo[4,5-b]pyridin-2-yl)-N-(3,5-dichlorobenzyl) azepan-3-amine]: on MetRS (T. brucei), half-maximal inhibition (IC50) was put at 682 nM. In addition, the EC50 in the assay with T. brucei (setting [1]) worked out at 1810 nM.

On MetRS (T. brucei), `O=C(CCNc1ccc(Cl)cc1Cl)NCc1nc2ccccc2[nH]1` [Compound 1763, N-(1H-Benzoimidazol-2-ylmethyl)-3-(2,4-dichloro-phenylamino)-propionamide] returned an IC50 of 168 nM. Besides, the EC50 with T. brucei (setting [1]) turned out to be 12700 nM.

Turning to `Clc1cc(Cl)cc(CNCCSc2nc3nc(Cl)ccc3[nH]2)c1` [Compound 1896, [2-({5-chloro-1H-imidazo[4,5-b]pyridin-2-yl}sulfanyl)ethyl][(3,5-dichlorophenyl)methyl]amine], the midpoint of inhibition at MetRS (T. brucei), the IC50, lay at 1050 nM. For the same compound, the concentration for a half-maximal effect (EC50) with T. brucei (setting [1]) was 1400 nM.

Consider `Clc1cc(Cl)cc(CN[C@@H]2CCN(c3nc4ccc(Cl)nc4[nH]3)C2)c1` [Compound 1847, (3R)-1-{5-chloro-3H-imidazo[4,5-b]pyridin-2-yl}-N-[(3,5-dichlorophenyl)methyl]pyrrolidin-3-amine], for which the IC50 against MetRS (T. brucei) turned out to be 696 nM. Moreover, the EC50 with T. brucei (setting [1]) worked out at 9010 nM.

Turning to `CC(Cc1nc2ccccc2[nH]1)NCc1cc(Cl)cc(Cl)c1` (stereo not shown) [Compound 1819, [1-(1H-1,3-benzodiazol-2-yl)propan-2-yl][(3,5-dichlorophenyl)methyl]amine], at MetRS (T. brucei), the IC50 is 7230 nM. The EC50 with T. brucei (setting [1]) is 8900 nM.

`Cc1ccc2nc(CC(C)NCc3cc(Cl)cc(Cl)c3)[nH]c2c1` (stereo not shown) [Compound 1820, [(3,5-dichlorophenyl)methyl][1-(6-methyl-1H-1,3-benzodiazol-2-yl)propan-2-yl]amine] had an IC50 against MetRS (T. brucei) of 290 nM. In addition, the concentration for a half-maximal effect (EC50) in the assay on T. brucei (setting [1]) came to 3140 nM.

Consider `CN(CCNCc1cc(Cl)cc(Cl)c1)c1nc2nc(Cl)c(Br)cc2[nH]1` [Compound 1894, 6-bromo-5-chloro-N-(2-{[(3,5-dichlorophenyl)methyl]amino}ethyl)-N-methyl-3H-imidazo[4,5-b]pyridin-2-amine], for which, at MetRS (T. brucei), the midpoint of inhibition, the IC50, lay at 179 nM. Moreover, the half-maximal effective concentration (EC50) in the assay on T. brucei (setting [1]) was 2890 nM.

For the compound `CC(=O)N(Cc1cc(Cl)cc(Cl)c1)[C@@H]1CCC[C@H](c2nc3nc(F)ccc3[nH]2)C1` [Compound 1932, N-(3,5-dichlorobenzyl)-N-((1R,3S)-3-(5-fluoro-1H-imidazo[4,5-b]pyridin-2-yl)cyclohexyl)acetamide], at MetRS (T. brucei), the IC50 is 518 nM. Further, the EC50 in the assay on T. brucei (setting [1]) was found to be 8910 nM.

As to `CC(=O)N(C1CCNc2c(Cl)cc(Cl)cc21)[C@H]1CCCN(c2nc3nc(Cl)ccc3[nH]2)C1` (stereo partly shown) [Compound 1943], at MetRS (T. brucei), the IC50 is 2130 nM and 3540 nM. The EC50 in the assay with T. brucei (setting [1]) turned out to be 419 nM; in the assay on T. brucei (read-out: B) T. brucei EC50) it was 389 nM.

With `OC1NC(Cc2ccc(Cl)cc2Cl)=CN1Cc1nc2ccccc2[nH]1` (stereo not shown) [Compound 1936, 3-((1H-benzo[d]imidazol-2-yl)methyl)-5-(2,4-dichlorobenzyl)-2,3-dihydro-1H-imidazol-2-ol], the IC50 against MetRS (T. brucei) amounted to 65 nM. Besides, the concentration for a half-maximal effect (EC50) in the assay on T. brucei (setting [1]) worked out at 1830 nM.

At MetRS (T. brucei), `Clc1cc(Cl)cc(CNC2CCCC(c3nc4ccccc4[nH]3)C2)c1` (stereo not shown) [Compound 1815, 3-(1H-benzo[d]imidazol-2-yl)-N-(3,5-dichlorobenzyl)cyclohexanamine] came in with an IC50 of more than 10000 nM. Further, the EC50 with T. brucei (setting [1]) stood at 4090 nM.

On to `O=C(NCc1cc(Cl)cc(Cl)c1)NCc1nc2ccc(Cl)nc2[nH]1` [Compound 1991, 3-({5-chloro-3H-imidazo[4,5-b]pyridin-2-yl}methyl)-1-[(3,5-dichlorophenyl)methyl]urea], for which the IC50 at MetRS (T. brucei) came out at 18 nM. Also, the EC50 in the assay on T. brucei (setting [1]) was found to be 2070 nM.

At MetRS (T. brucei), `Clc1cc(Cl)cc(NCCNCc2nc3ccc(Cl)nc3[nH]2)c1` [Compound 1994, ({5-chloro-3H-imidazo[4,5-b]pyridin-2-yl}methyl)({2-[(3,5-dichlorophenyl)amino]ethyl})amine] returned an IC50 of 59 nM. Further, the EC50 in the assay on T. brucei (setting [1]) came out at 1410 nM.

For `Clc1cc(Cl)cc(CN2CCC[C@H](c3nc4nc(Cl)ccc4[nH]3)C2)c1` [Compound 1868, (S)-5-chloro-2-(1-(3,5-dichlorobenzyl)piperidin-3-yl)-1H-imidazo[4,5-b]pyridine], the half-inhibitory concentration (IC50) at MetRS (T. brucei) was found to be 77 nM. Moreover, in the assay on T. brucei (setting [1]), the EC50 was determined as 1080 nM.

As to `Clc1cc(Cl)cc(CNCCNc2nc3ncc(Cl)cc3[nH]2)c1` [Compound 1850, [2-({6-chloro-1H-imidazo[4,5-b]pyridin-2-yl}amino)ethyl][(3,5-dichlorophenyl)methyl]amine], 385 nM corresponded to half-maximal inhibition at MetRS (T. brucei) (IC50). The EC50 with T. brucei (setting [1]) was 3870 nM.

On MetRS (T. brucei), `N[C@H](CC(=O)NCc1nc2ccccc2[nH]1)Cc1ccc(Cl)cc1Cl` [Compound 1726, (3S)-3-amino-N-(1H-1,3-benzodiazol-2-ylmethyl)-4-(2,4-dichlorophenyl)butanamide] returned a concentration for half-maximal inhibition (IC50) of 2380 nM. Moreover, the half-maximal effective concentration (EC50) with T. brucei (setting [1]) was 8020 nM.

As for `O=C(Cc1cc(Cl)cc(Cl)c1)N1CCCC(c2nc3cc(Cl)c(Cl)cc3[nH]2)C1` (stereo not shown) [Compound 1745, 1-(3-(5,6-dichloro-1H-benzo[d]imidazol-2-yl)piperidin-1-yl)-2-(3,5-dichlorophenyl)ethanone], on MetRS (T. brucei), the IC50 was 812 nM. Also, the EC50 in the assay on T. brucei (setting [1]) amounted to 4600 nM.

For the compound `O=C(Cc1cc(Cl)cc(Cl)c1)N1CCCC(c2nc3cc(Cl)c(F)cc3[nH]2)C1` (stereo not shown) [Compound 1746, 1-(3-(5-chloro-6-fluoro-1H-benzo[d]imidazol-2-yl)piperidin-1-yl)-2-(3,5-dichlorophenyl)ethanone], at MetRS (T. brucei), the IC50 came out at 138 nM. In the assay on T. brucei (setting [1]), the EC50 came out at 3330 nM.

For the compound `O=C(Cc1ccc(Cl)cc1Cl)NCc1nc2cnc(Cl)cc2[nH]1` [Compound 1880, N-({6-chloro-1H-imidazo[4,5-c]pyridin-2-yl}methyl)-2-(2,4-dichlorophenyl)acetamide], 214 nM corresponded to half-maximal inhibition against MetRS (T. brucei) (IC50). In the assay on T. brucei (setting [1]), the half-maximal effective concentration (EC50) was found to be 8400 nM.

Consider `Clc1cc(Cl)cc(CO[C@H]2CCCN(c3nc4nc(Cl)ccc4[nH]3)C2)c1` [Compound 1898], for which the concentration for half-maximal inhibition (IC50) against MetRS (T. brucei) amounted to 196 nM. Besides, the concentration giving a half-maximal response (EC50) in the assay on T. brucei (setting [1]) amounted to 8800 nM.

In the case of `CC(=O)N(Cc1cc(Cl)cc(Cl)c1)C1CCCC(c2nc3cc(Cl)ccc3[nH]2)C1` (stereo not shown) [Compound 1861, N-(3-(5-chloro-1H-benzo[d]imidazol-2-yl)cyclohexyl)-N-(3,5-dichlorobenzyl)acetamide], on MetRS (T. brucei), the half-maximal inhibitory concentration (IC50) came out at 1470 nM. Also, the EC50 in the assay with T. brucei (setting [1]) was 4440 nM.

As to `O=C1N[C@@H](Cc2ccc(Cl)cc2Cl)CN1Cc1nc2ccccc2[nH]1` [Compound 1792, 1-(1H-Benzoimidazol-2-ylmethyl)-4-(2,4-dichloro-benzyl)-imidazolidin-2-one], the IC50 against MetRS (T. brucei) stood at 150 nM. For the same compound, the EC50 in the assay on T. brucei (setting [1]) was determined as 2680 nM.

Turning to `O=C1CN(C(=O)c2ccc3ccccc3c2)CCN1Cc1nc2ccccc2[nH]1` [Compound 1760, 1-((1H-benzo[d]imidazol-2-yl)methyl)-4-(2-naphthoyl)piperazin-2-one], the 50% inhibitory concentration (IC50) on MetRS (T. brucei) was more than 10000 nM. In the assay with T. brucei (setting [1]), the concentration for a half-maximal effect (EC50) is more than 10000 nM.

In turn, `CCOc1c(Br)cc(Cl)cc1CN[C@H]1CCCN(c2nc3nc(Cl)ccc3[nH]2)C1` [Compound 1937, (S)—N-(3-bromo-5-chloro-2-ethoxybenzyl)-1-(5-chloro-1H-imidazo[4,5-b]pyridin-2-yl)piperidin-3-amine] showed an IC50 on MetRS (T. brucei) of 19 nM. For the same compound, the concentration for a half-maximal effect (EC50) in the assay with T. brucei (setting [1]) is 230 nM.
